Measurements from ChEMBL document CHEMBL1201862, “PubChem BioAssay data set” (2004).
Calls of active or inactive are those of the source.

Key:
[1] = cytotoxicity toward NIH3T3 fibroblasts, dose response, counter-screen, cell-based, ATP luminescence, mouse fibroblasts (AID 2010); type: functional;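 further: cells exposed to compound for about 90 hours before reading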
[2] = biological target: T1, Histone-lysine N-methyltransferase NSD2 (Homo sapiens, UniProt O96028); type: biochemical
T1 sequence (O96028 whole entry): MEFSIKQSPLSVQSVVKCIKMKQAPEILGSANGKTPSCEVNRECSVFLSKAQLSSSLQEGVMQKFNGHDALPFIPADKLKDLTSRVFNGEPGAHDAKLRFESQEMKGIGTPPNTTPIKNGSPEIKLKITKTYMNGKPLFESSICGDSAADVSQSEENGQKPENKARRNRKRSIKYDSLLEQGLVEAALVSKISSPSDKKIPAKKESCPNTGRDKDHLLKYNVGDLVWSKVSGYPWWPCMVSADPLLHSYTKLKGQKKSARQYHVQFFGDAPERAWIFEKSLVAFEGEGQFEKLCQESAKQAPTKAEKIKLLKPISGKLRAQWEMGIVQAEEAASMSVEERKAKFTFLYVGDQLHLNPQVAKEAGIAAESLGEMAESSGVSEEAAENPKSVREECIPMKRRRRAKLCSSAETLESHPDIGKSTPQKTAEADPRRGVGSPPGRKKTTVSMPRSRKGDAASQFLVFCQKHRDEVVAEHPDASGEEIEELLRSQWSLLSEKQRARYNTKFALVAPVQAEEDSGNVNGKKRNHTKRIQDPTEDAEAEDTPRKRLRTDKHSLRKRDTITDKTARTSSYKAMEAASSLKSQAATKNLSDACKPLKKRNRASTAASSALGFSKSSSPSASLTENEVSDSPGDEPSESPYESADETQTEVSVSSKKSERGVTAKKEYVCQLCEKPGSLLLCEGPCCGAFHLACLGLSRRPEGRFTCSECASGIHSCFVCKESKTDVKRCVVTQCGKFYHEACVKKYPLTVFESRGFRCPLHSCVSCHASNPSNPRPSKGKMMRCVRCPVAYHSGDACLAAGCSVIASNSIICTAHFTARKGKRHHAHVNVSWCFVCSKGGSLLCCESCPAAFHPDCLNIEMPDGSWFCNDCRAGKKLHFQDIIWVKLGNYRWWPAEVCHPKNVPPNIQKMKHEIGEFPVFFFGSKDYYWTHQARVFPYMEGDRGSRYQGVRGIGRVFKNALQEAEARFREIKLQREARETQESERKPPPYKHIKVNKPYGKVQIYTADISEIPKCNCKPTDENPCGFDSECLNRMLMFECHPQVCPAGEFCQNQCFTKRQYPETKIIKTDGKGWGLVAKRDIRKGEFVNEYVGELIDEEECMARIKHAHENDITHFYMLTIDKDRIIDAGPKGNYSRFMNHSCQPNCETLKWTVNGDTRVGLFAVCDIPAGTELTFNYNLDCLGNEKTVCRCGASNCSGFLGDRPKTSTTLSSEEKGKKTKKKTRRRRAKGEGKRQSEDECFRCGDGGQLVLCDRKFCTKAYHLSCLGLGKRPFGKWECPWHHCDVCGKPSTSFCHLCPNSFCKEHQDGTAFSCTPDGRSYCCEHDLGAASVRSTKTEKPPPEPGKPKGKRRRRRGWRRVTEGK

[3] = inhibitors of intracellular T. cruzi replication, confirmation, NIH3T3 host cells, beta-gal luminescence (AID 2044); type: functional, cell-based;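 further: intracellular parasites grown in NIH/3T3 mouse fibroblasts as host cells; luminescent beta-galactosidase reporter signal from transgenic T. cruzi replicating inside host cells; inhibitors lower the luminescence signal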
[4] = biological target: T2, Rac GTPase-activating protein 1 (Homo sapiens, UniProt Q9H0H5); assay: MgcRacGAP GTPase-activating activity inhibitors, confirmation, biochemical, ADP Hunter fluorescence, primary and confirmatory (AID 624330); type: functional
T2 sequence (Q9H0H5 whole entry): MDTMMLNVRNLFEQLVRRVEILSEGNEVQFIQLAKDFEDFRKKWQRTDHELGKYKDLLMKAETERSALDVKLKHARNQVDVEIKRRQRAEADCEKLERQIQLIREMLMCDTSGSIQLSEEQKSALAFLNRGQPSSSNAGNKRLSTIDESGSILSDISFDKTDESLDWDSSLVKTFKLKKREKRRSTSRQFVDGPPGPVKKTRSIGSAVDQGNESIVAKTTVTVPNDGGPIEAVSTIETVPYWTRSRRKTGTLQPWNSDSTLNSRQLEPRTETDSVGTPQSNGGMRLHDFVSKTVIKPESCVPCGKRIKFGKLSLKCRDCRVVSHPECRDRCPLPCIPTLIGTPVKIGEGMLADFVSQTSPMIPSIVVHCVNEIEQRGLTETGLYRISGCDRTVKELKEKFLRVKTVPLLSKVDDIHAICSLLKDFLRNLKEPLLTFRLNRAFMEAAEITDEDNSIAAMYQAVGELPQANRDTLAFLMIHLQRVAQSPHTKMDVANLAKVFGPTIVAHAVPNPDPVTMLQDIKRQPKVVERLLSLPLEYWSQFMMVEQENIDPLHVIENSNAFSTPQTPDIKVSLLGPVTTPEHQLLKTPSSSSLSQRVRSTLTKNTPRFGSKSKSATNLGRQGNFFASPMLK

[5] = biological target: T3, DNA repair protein RAD52 homolog (Homo sapiens, UniProt P43351); type: functional, biochemical
T3 sequence (P43351 whole entry): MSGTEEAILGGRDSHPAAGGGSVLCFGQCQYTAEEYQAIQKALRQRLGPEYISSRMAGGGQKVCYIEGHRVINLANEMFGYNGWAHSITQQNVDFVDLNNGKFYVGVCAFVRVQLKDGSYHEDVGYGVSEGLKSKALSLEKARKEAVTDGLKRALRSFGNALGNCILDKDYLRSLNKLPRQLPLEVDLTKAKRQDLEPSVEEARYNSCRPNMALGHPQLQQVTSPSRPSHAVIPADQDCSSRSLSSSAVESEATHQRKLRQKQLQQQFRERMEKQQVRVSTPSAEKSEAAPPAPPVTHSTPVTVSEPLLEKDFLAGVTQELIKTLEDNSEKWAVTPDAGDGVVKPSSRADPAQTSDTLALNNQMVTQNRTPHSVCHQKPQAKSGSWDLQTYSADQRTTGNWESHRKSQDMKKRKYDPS

Fatty acid synthase [6] = biological target: T4, Fatty acid synthase (Homo sapiens, UniProt P49327); assay: FAS thioesterase domain inhibitors, dose response, biochemical, endpoint fluorescence intensity, uHTS hits (AID 624327); type: functional;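 further: fluorescence from hydrolysis of an O-methyl fluorescein acyl ester substrate by the enzyme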
Fatty acid synthase [7] = biological target: T4, Fatty acid synthase; assay: FAS thioesterase domain inhibitors, dose response, biochemical, kinetic fluorescence intensity (AID 624326); type: functional;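 further: rate of fluorescence rise from hydrolysis of a fluorogenic O-methyl fluorescein ester substrate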
cells = type: functional, cell-based
[8] = biological target: T5, Nuclear receptor subfamily 0 group B member 1 (Homo sapiens, UniProt P51843); type: functional, cell-based;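 further: HEK293T cells transfected with SF-1 and DAX-1 plus StAR promoter luciferase reporter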
T5 sequence (P51843 whole entry): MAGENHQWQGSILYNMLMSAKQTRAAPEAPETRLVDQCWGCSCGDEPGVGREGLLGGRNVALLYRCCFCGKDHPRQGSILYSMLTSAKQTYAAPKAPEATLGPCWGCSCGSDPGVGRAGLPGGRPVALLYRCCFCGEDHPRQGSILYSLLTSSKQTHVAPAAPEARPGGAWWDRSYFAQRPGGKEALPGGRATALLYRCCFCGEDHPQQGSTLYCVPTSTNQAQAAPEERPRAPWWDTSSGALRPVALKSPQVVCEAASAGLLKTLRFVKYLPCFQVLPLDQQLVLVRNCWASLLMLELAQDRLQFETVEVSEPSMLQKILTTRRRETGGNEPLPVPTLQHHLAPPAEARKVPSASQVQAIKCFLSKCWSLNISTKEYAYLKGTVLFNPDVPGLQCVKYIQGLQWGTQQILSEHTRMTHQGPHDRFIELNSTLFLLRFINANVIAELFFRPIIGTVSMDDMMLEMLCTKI

[9] = biological target: T6, Heat shock factor protein 1 (Mus musculus, UniProt P38532); assay: inhibition of MG132-induced HSE-luciferase signal, confirmation, cell-based, NIH3T3, luminescence, dose retest (AID 2382); type: functional;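 further: NIH3T3 fibroblasts with HSF1-driven luciferase reporter stressed by proteasome inhibitor MG132; luminescence from HSF1-driven luciferase expression after 8 hours of MG132 stress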
T6 sequence (P38532 whole entry): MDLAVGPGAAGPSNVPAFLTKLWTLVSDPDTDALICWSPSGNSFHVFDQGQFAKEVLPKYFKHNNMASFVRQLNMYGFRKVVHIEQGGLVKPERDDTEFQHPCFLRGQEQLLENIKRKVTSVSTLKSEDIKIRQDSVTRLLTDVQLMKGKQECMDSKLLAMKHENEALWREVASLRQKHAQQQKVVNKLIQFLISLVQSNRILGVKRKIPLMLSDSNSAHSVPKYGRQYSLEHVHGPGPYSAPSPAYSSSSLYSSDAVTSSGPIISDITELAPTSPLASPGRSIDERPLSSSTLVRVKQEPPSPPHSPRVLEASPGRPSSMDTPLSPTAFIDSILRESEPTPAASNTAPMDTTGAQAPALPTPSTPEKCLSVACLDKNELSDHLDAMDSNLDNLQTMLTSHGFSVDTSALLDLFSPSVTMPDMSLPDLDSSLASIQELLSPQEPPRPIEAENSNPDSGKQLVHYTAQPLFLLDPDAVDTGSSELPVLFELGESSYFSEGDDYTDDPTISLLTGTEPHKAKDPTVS

[10] = growth suppression of PTEN-null colon cells, dose response, cell-based, HCT116 PTEN knockout (AID 1047); type: functional;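 further: HCT116 colon tumor cells with PTEN knocked out; cells exposed to compound for 60 hours before readout; potency for loss of cell viability measured by luminescence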
Prothrombin = Prothrombin (Homo sapiens, UniProt P00734); assay: Thrombin 1536 HTS Dose Response Confirmation. [Related pubchem assays: 1046 (Thrombin 1536 HTS; hits were confirmed in this assay)]; type: functional
[11] = growth suppression of beta-catenin-knockout colon cells, dose response, cell-based, HCT116, human colon tumor (AID 1045); type: functional;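 further: HCT116 colon tumor cells with beta catenin knocked out; cells exposed to compound for 60 hours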
[12] = inhibitors of firefly luciferase expression or activity, dose response, H4 neuroglioma cells, luminescence (AID 1990); type: functional, cell-based
[13] = Luminescence Cell-Based Dose Response HTS to Identify Inhibitors of 5'UTR Stem-Loop Driven Prion Protein mRNA Translation in H4 Neuroglioblastoma Cells. [Related pubchem assays: 1827 (Project Summary), 1813 (Primary HTS)]; type: functional
[14] = microbe, parasite or virus in culture; type: functional; conditions: Mycobacterium tuberculosis
[15] = inhibitors of SNCA 5'UTR-driven reporter translation, confirmation, H4 neuroglioma cells, luminescence (AID 1988); type: functional, cell-based
BJ [16] = assay: cells; type: functional, cell-based; conditions: Homo sapiens
BJ [17] = assay: cytotoxicity toward BJ-TERT-LT-ST fibroblasts, dose response, cell-based, RAS-independent, luminescence (AID 1935); type: functional; conditions: Homo sapiens;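 further: BJ fibroblasts immortalized with TERT plus LT and ST oncogenes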
Nonstructural protein 1 = Nonstructural protein 1 (Influenza A virus, UniProt Q194T2); type: functional, Influenza A virus (A/California/07/2009(H1N1))
BJ [18] = assay: cytotoxicity toward Ras-transformed BJeLR fibroblasts, dose response, cell-based, alamar blue fluorescence, cherrypicked samples (AID 2631); type: functional; conditions: Homo sapiens;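 further: confirmatory dose-response assay in RAS-dependent BJ fibroblasts engineered with TERT, LT and ST, with cytotoxicity read by fluorescence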
[19] = cytotoxicity toward DRD oncogenic fibroblasts, dose response, cell-based, non-viral oncogenic, luminescence (AID 1934); type: functional; conditions: Homo sapiens
BJ [20] = assay: cytotoxicity toward BJ-TERT fibroblasts, dose response, cell-based, RAS-independent, luminescence (AID 1933); type: functional; conditions: Homo sapiens
Kallikrein-7 = Kallikrein-7 (Homo sapiens, UniProt P49862); assay: Fluorescence Intensity-based biochemical primary high throughput dose response assay to identify activators of kallikrein-7 (K7) zymogen.
Sequence of Kallikrein-7 (P49862 whole entry): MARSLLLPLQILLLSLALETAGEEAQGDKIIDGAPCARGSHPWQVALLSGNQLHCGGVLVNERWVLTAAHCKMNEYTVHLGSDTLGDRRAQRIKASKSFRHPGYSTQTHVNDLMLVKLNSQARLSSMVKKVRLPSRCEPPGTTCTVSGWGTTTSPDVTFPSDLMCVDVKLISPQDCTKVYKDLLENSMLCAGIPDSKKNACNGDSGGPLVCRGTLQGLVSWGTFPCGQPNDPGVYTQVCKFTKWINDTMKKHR

T4 sequence (P49327 whole entry, the tested form may be a part): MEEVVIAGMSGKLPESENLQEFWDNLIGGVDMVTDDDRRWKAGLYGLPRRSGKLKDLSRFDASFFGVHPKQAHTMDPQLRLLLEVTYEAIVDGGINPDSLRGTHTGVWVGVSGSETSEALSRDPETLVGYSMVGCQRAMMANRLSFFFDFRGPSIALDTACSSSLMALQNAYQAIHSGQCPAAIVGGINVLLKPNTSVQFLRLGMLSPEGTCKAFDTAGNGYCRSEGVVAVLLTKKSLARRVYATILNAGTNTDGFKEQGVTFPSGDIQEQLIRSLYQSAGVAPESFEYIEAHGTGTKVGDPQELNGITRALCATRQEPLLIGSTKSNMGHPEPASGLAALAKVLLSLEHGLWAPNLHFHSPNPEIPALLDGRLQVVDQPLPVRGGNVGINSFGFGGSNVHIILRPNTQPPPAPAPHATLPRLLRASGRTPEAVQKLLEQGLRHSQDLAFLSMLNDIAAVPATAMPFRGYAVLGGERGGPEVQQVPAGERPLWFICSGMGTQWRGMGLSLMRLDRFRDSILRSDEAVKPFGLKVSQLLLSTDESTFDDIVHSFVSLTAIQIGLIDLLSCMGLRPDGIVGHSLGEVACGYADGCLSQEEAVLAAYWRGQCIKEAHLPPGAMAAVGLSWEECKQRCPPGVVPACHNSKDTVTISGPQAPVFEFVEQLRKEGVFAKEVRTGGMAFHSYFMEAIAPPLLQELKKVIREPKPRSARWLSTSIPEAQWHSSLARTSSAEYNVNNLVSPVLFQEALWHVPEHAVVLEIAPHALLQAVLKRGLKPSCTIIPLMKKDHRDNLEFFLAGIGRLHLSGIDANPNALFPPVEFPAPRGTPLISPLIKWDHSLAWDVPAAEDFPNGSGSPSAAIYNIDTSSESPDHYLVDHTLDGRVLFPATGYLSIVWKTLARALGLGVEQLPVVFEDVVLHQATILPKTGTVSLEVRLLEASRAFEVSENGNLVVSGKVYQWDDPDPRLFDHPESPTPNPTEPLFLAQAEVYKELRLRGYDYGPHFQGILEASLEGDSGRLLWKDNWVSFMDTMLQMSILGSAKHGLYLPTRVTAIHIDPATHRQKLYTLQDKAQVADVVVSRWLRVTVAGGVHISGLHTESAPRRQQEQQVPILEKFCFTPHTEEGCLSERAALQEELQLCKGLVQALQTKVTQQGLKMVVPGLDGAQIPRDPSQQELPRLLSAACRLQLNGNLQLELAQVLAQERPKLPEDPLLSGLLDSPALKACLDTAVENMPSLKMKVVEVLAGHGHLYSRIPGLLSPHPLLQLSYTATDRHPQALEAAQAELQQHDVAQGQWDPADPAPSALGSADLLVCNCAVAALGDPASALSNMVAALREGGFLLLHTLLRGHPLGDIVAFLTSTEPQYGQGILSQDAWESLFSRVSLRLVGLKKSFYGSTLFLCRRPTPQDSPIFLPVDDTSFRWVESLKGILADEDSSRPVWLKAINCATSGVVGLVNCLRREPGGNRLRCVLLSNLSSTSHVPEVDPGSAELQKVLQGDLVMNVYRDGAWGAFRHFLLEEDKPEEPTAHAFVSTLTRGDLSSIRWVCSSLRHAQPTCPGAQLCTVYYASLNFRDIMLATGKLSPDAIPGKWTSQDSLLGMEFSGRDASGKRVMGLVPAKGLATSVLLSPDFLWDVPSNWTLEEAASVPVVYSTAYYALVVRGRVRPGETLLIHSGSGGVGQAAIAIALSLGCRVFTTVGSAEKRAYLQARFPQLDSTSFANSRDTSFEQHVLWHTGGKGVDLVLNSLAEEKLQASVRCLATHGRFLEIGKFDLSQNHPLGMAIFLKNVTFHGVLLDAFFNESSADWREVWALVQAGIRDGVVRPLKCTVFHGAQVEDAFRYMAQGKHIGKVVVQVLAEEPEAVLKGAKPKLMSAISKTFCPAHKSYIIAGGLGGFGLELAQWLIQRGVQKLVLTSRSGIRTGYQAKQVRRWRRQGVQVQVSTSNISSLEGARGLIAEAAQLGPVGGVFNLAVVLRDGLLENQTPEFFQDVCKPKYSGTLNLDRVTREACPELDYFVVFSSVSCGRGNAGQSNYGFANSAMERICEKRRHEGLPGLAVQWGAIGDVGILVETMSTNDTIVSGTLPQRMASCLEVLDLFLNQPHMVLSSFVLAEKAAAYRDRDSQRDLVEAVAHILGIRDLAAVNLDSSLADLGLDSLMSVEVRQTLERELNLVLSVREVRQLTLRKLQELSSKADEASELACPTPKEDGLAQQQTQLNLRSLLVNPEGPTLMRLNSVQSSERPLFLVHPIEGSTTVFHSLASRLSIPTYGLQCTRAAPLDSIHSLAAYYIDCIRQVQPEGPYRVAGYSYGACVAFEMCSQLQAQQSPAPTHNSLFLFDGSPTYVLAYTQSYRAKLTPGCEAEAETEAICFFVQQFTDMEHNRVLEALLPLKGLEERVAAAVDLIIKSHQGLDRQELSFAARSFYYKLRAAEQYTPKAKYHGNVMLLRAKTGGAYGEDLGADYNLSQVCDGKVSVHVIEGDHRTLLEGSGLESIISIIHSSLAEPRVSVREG
Sequence of Nonstructural protein 1 (Q194T2 whole entry): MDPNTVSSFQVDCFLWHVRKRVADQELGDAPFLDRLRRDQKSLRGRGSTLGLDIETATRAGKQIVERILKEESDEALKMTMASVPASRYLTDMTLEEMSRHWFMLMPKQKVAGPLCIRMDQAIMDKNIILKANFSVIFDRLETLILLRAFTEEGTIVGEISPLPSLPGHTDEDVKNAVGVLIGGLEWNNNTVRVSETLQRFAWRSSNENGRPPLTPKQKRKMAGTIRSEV

## C[n+]1ccc(/C=C/c2ccccc2O)c2ccccc21
[1]
  EC50: > 60 µM (not active)
[2]
  AC50: > 20 µM (inactive)
[3]
  EC50: 0.753 µM (active)
[4]
  IC50: 178 µM (active)
[5]
  AC50: 19.1 µM (active)

## O=C(COC(=O)c1cc([N+](=O)[O-])ccc1NCCO)Nc1cccc(S(=O)(=O)N2CCCC2)c1
Fatty acid synthase [6]
  IC50: 6.67 µM (active)
Fatty acid synthase [7]
  IC50: 4.57 µM (active)

## CCCC(C)C(=O)Nc1cc([N+](=O)[O-])ccc1Cl (stereo unspecified)
Fatty acid synthase [6]
  IC50: 12.2 µM (active)
Fatty acid synthase [7]
  IC50: 11.8 µM (active)

## Cn1cccc1C(=O)NCC1COc2ccccc2O1 (stereo unspecified)
cells
  IC50: > 67.5 µM (inactive)
[8]
  IC50: > 67.5 µM (inactive)

## Cc1cc(-n2c(C)c3c(C)nnc(C)c3c2C)ccc1N
[5]
  AC50: 8.66 µM (active)
[9]
  EC50: > 195 µM (not active)

## Cc1nn2c(NCCCN(C)C)c3c(nc2c1-c1ccccc1)CCC3
[1]
  EC50: > 60 µM (not active)
[10]
  EC50: 15.9 µM (active)
[3]
  EC50: 0.625 µM (active)
Prothrombin
  IC50: > 50 µM (not active)
[11]
  EC50: 15.9 µM (active)

## COc1ccc(N(C(=O)c2ccco2)S(=O)(=O)c2ccc(F)cc2)cc1
Prothrombin
  IC50: 17.5 µM (active)

## C=CCN(C(=O)Nc1ccc2c(c1)nc(C)n2C)c1ccccc1
Prothrombin
  IC50: > 50 µM (not active)

## ClC1=C(Cl)C(Cl)=C(Cl)C1=C/C=C/c1ccccc1
[12]
  EC50: 3.75 µM (inconclusive)
[13]
  EC50: 10.9 µM (active)
[14]
  CC50: 7.07 µM (active)
[15]
  EC50: 3.43 µM (active)
BJ [16]
  EC50: 2.98 µM (active)
BJ [17]
  EC50: 2.42 µM (inconclusive)
Nonstructural protein 1
  IC50: 33.6 µM (active)
BJ [18]
  EC50: 1.25 µM (active)
[19]
  EC50: 2.45 µM (active)
BJ [20]
  EC50: 2.55 µM (inconclusive)

## COc1ccc(-c2ccc3nnc(SCC(=O)N4CCCC4)n3n2)cc1
Kallikrein-7
  EC50: > 69.5 µM (inactive)
